Reference: the supplement of paper PMC10307832

How the values were obtained:
Assay in all cases: relative viability (nuclei count vs DMSO), 5 days (fraction); higher = more cells survive
[1] = compound: CCN(CCO)CCCC(C)Nc1ccnc2cc(Cl)ccc12 [Hydroxychloroquine] + NC(=O)Nc1cc(-c2cccc(F)c2)sc1C(=O)N[C@H]1CCCNC1 [AZD7762] (partner 0.2 µM)
How it was run: (§1)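 Medians of duplicate plates are given as relative viability. That measure is the nuclei count in treated wells divided by the count in vehicle wells. Counts were taken on 4× images of lung cancer cell lines in 1536-well plates, 5 days after pin-tool dosing the day after seeding with one drug alone or a fixed anchor-drug dose plus five library-drug doses (not always all listed) in √10 steps.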

[2] = compound: CCN(CCO)CCCC(C)Nc1ccnc2cc(Cl)ccc12 [Hydroxychloroquine] + COc1cccc2cc(-c3nc([C@H]4CC[C@H](C(=O)O)CC4)n4ncnc(N)c34)[nH]c12 [OSI-027] (partner 0.5 µM)
How it was run: as §1

[3] = compound: CCN(CCO)CCCC(C)Nc1ccnc2cc(Cl)ccc12 [Hydroxychloroquine] + COc1cc2c(Oc3ccc(NC(=O)C4(C(=O)Nc5ccc(F)cc5)CC4)cc3F)ccnc2cc1OCCCN1CCOCC1 [Foretinib] (partner 0.25 µM)
How it was run: as §1

[4] = compound: CCN(CCO)CCCC(C)Nc1ccnc2cc(Cl)ccc12 [Hydroxychloroquine] + Nc1nc2[nH]cc(CCc3ccc(C(=O)N[C@@H](CCC(=O)O)C(=O)O)cc3)c2c(=O)[nH]1 [Pemetrexed] (partner 0.2 µM)
How it was run: as §1

Cell Line: NCI-H727
- relative viability ([1]; first compound 0.5 µM): 0.845
- relative viability ([1]; first compound 1.581 µM): 0.698
- relative viability ([1]; first compound 5 µM): 0.655
- relative viability ([1]; first compound 15.81 µM): 0.599
- relative viability ([1]; first compound 50 µM): 0.523
- relative viability ([2]; first compound 0.5 µM): 0.672
- relative viability ([2]; first compound 1.581 µM): 0.639
- relative viability ([2]; first compound 5 µM): 0.796
- relative viability ([2]; first compound 15.81 µM): 0.555
- relative viability ([2]; first compound 50 µM): 0.632
- relative viability ([3]; first compound 0.5 µM): 0.752
- relative viability ([3]; first compound 1.581 µM): 0.767
- relative viability ([3]; first compound 5 µM): 0.735
- relative viability ([3]; first compound 15.81 µM): 0.794
- relative viability ([3]; first compound 50 µM): 0.922

Cell Line: NCI-H1650
- relative viability ([4]; first compound 0.5 µM): 0.337
- relative viability ([4]; first compound 1.581 µM): 0.331
- relative viability ([4]; first compound 5 µM): 0.342
- relative viability ([4]; first compound 15.81 µM): 0.397
- relative viability ([4]; first compound 50 µM): 0.346
- relative viability ([2]; first compound 0.5 µM): 0.653
- relative viability ([2]; first compound 1.581 µM): 0.729
- relative viability ([2]; first compound 5 µM): 0.634
- relative viability ([2]; first compound 15.81 µM): 0.562
- relative viability ([2]; first compound 50 µM): 0.577
- relative viability ([3]; first compound 0.5 µM): 0.996
- relative viability ([3]; first compound 1.581 µM): 1.01
- relative viability ([3]; first compound 5 µM): 1.02
- relative viability ([3]; first compound 15.81 µM): 0.999
- relative viability ([3]; first compound 50 µM): 1.15

Cell Line: EBC-1
- relative viability ([3]; first compound 0.5 µM): 0.122
- relative viability ([3]; first compound 1.581 µM): 0.093
- relative viability ([3]; first compound 5 µM): 0.0998
- relative viability ([3]; first compound 15.81 µM): 0.11
- relative viability ([3]; first compound 50 µM): 0.132

Cell Line: SW 1573
- relative viability ([4]; first compound 0.5 µM): 0.892
- relative viability ([4]; first compound 1.581 µM): 0.686
- relative viability ([4]; first compound 5 µM): 0.794
- relative viability ([4]; first compound 15.81 µM): 0.86
- relative viability ([4]; first compound 50 µM): 0.758
- relative viability ([2]; first compound 0.5 µM): 0.591
- relative viability ([2]; first compound 1.581 µM): 0.524
- relative viability ([2]; first compound 5 µM): 0.674
- relative viability ([2]; first compound 15.81 µM): 0.649
- relative viability ([2]; first compound 50 µM): 0.826
- relative viability ([3]; first compound 0.5 µM): 1.06
- relative viability ([3]; first compound 1.581 µM): 0.774
- relative viability ([3]; first compound 5 µM): 1.08
- relative viability ([3]; first compound 15.81 µM): 0.686
- relative viability ([3]; first compound 50 µM): 0.871

Cell Line: NCI-H661
- relative viability ([4]; first compound 0.5 µM): 0.962
- relative viability ([4]; first compound 1.581 µM): 0.904
- relative viability ([4]; first compound 5 µM): 0.91
- relative viability ([4]; first compound 15.81 µM): 0.877
- relative viability ([4]; first compound 50 µM): 0.872
- relative viability ([2]; first compound 0.5 µM): 0.668
- relative viability ([2]; first compound 1.581 µM): 0.52
- relative viability ([2]; first compound 5 µM): 0.629
- relative viability ([2]; first compound 15.81 µM): 0.583
- relative viability ([2]; first compound 50 µM): 0.697
- relative viability ([3]; first compound 0.5 µM): 0.998
- relative viability ([3]; first compound 1.581 µM): 0.992
- relative viability ([3]; first compound 5 µM): 1.01
- relative viability ([3]; first compound 15.81 µM): 1
- relative viability ([3]; first compound 50 µM): 1.05

Cell Line: SK-MES-1
- relative viability ([4]; first compound 0.5 µM): 1.03
- relative viability ([4]; first compound 1.581 µM): 0.73
- relative viability ([4]; first compound 5 µM): 1.02
- relative viability ([4]; first compound 15.81 µM): 1.05
- relative viability ([4]; first compound 50 µM): 0.945
- relative viability ([2]; first compound 0.5 µM): 0.623
- relative viability ([2]; first compound 1.581 µM): 0.381
- relative viability ([2]; first compound 5 µM): 0.712
- relative viability ([2]; first compound 15.81 µM): 0.67
- relative viability ([2]; first compound 50 µM): 0.589
- relative viability ([3]; first compound 0.5 µM): 0.883
- relative viability ([3]; first compound 1.581 µM): 0.822
- relative viability ([3]; first compound 5 µM): 1.04
- relative viability ([3]; first compound 15.81 µM): 0.901
- relative viability ([3]; first compound 50 µM): 0.792

Cell Line: NCI-H1792
- relative viability ([1]; first compound 0.5 µM): 0.762
- relative viability ([1]; first compound 1.581 µM): 0.692
- relative viability ([1]; first compound 5 µM): 0.57
- relative viability ([1]; first compound 15.81 µM): 0.601
- relative viability ([1]; first compound 50 µM): 0.836
- relative viability ([4]; first compound 0.5 µM): 0.694
- relative viability ([4]; first compound 1.581 µM): 0.831
- relative viability ([4]; first compound 5 µM): 0.755
- relative viability ([4]; first compound 15.81 µM): 0.641
- relative viability ([4]; first compound 50 µM): 0.859
- relative viability ([2]; first compound 0.5 µM): 0.797
- relative viability ([2]; first compound 1.581 µM): 0.729
- relative viability ([2]; first compound 5 µM): 0.715
- relative viability ([2]; first compound 15.81 µM): 1.04
- relative viability ([2]; first compound 50 µM): 0.825

Cell Line: UMC-11
- relative viability ([4]; first compound 0.5 µM): 0.751
- relative viability ([4]; first compound 1.581 µM): 0.751
- relative viability ([4]; first compound 5 µM): 0.826
- relative viability ([4]; first compound 15.81 µM): 0.976
- relative viability ([4]; first compound 50 µM): 0.825
- relative viability ([2]; first compound 1.581 µM): 0.402
- relative viability ([2]; first compound 5 µM): 0.486
- relative viability ([2]; first compound 15.81 µM): 0.403
- relative viability ([2]; first compound 50 µM): 0.538
- relative viability ([3]; first compound 1.581 µM): 0.978
- relative viability ([3]; first compound 5 µM): 1.12
- relative viability ([3]; first compound 15.81 µM): 1.04
- relative viability ([3]; first compound 50 µM): 1.19

Cell Line: A549
- relative viability ([3]; first compound 0.5 µM): 0.953
- relative viability ([3]; first compound 1.581 µM): 0.905
- relative viability ([3]; first compound 5 µM): 0.951
- relative viability ([3]; first compound 15.81 µM): 0.952
- relative viability ([3]; first compound 50 µM): 1.11

Cell Line: NCI-H1703
- relative viability ([1]; first compound 0.5 µM): 0.196
- relative viability ([1]; first compound 1.581 µM): 0.159
- relative viability ([1]; first compound 5 µM): 0.135
- relative viability ([1]; first compound 15.81 µM): 0.114
- relative viability ([1]; first compound 50 µM): 0.137
- relative viability ([3]; first compound 0.5 µM): 0.402
- relative viability ([3]; first compound 1.581 µM): 0.443
- relative viability ([3]; first compound 5 µM): 0.313
- relative viability ([3]; first compound 15.81 µM): 0.347
- relative viability ([3]; first compound 50 µM): 0.379

Cell Line: NCI-H1563
- relative viability ([4]; first compound 0.5 µM): 0.888
- relative viability ([4]; first compound 1.581 µM): 0.692
- relative viability ([4]; first compound 5 µM): 0.724
- relative viability ([4]; first compound 15.81 µM): 0.78
- relative viability ([4]; first compound 50 µM): 0.875
- relative viability ([2]; first compound 0.5 µM): 0.736
- relative viability ([2]; first compound 1.581 µM): 0.625
- relative viability ([2]; first compound 5 µM): 0.79
- relative viability ([2]; first compound 15.81 µM): 0.794
- relative viability ([2]; first compound 50 µM): 0.716
- relative viability ([3]; first compound 0.5 µM): 0.886
- relative viability ([3]; first compound 1.581 µM): 0.804
- relative viability ([3]; first compound 5 µM): 0.88
- relative viability ([3]; first compound 15.81 µM): 0.825
- relative viability ([3]; first compound 50 µM): 0.965

Cell Line: NCI-H520
- relative viability ([4]; first compound 0.5 µM): 0.76
- relative viability ([4]; first compound 1.581 µM): 0.729
- relative viability ([4]; first compound 5 µM): 0.596
- relative viability ([4]; first compound 15.81 µM): 0.657
- relative viability ([4]; first compound 50 µM): 0.798
- relative viability ([2]; first compound 0.5 µM): 0.301
- relative viability ([2]; first compound 1.581 µM): 0.22
- relative viability ([2]; first compound 5 µM): 0.285
- relative viability ([2]; first compound 15.81 µM): 0.324
- relative viability ([2]; first compound 50 µM): 0.268
- relative viability ([3]; first compound 0.5 µM): 0.833
- relative viability ([3]; first compound 1.581 µM): 0.781
- relative viability ([3]; first compound 5 µM): 0.801
- relative viability ([3]; first compound 15.81 µM): 0.839
- relative viability ([3]; first compound 50 µM): 0.748

Cell Line: NCI-H2009
- relative viability ([4]; first compound 0.5 µM): 1.07
- relative viability ([4]; first compound 1.581 µM): 0.991
- relative viability ([4]; first compound 5 µM): 1.02
- relative viability ([4]; first compound 15.81 µM): 1.07
- relative viability ([4]; first compound 50 µM): 1.01
- relative viability ([2]; first compound 0.5 µM): 0.632
- relative viability ([2]; first compound 1.581 µM): 0.616
- relative viability ([2]; first compound 5 µM): 0.651
- relative viability ([2]; first compound 15.81 µM): 0.658
- relative viability ([2]; first compound 50 µM): 0.644
- relative viability ([3]; first compound 0.5 µM): 1.19
- relative viability ([3]; first compound 1.581 µM): 1.21
- relative viability ([3]; first compound 5 µM): 1.24
- relative viability ([3]; first compound 15.81 µM): 1.16
- relative viability ([3]; first compound 50 µM): 1.18
